Format in all cases: cell-based, human
The test system of experiment [1] is shRNA to siRNA maturation (GAPDH mRNA). Put plainly: RNAi enhancing activity (shRNA to siRNA maturation, GAPDH mRNA in HEK-293T_shGAPDH). As to conditions: 50 μM, 48 hours. The method, then:
HEK-293T_shSCR and HEK-293T_shGAPDH were treated with 50 μM of enoxacin and 33 for 48 hours before RNA extraction and expression analysis.
Lentiviral particles were produced by calcium phosphate transient transfection of HEK-293T cells with specific lentiviral plasmids (shGAPDH: TRCN0000445616 and shSCR: TRCN0000015937 from SIGMA-ALDRICH) together with the packaging plasmids (pLP1and pLP2) and the envelope plasmid pLP/VSVG. For each lentiviral plasmid one 150 mm plate of HEK293T cells was used for transfection. After 14–16 hours the medium was replaced with complete medium supplemented with 1 mM sodium butyrate (SIGMA-ALDRICH). The collection of medium containing lentiviral particles occurs 48 h and 72 h after transfection; complete medium supplemented with sodium butyrate was added after the first collection. […]
Total RNA was extracted using the Direct-zol RNA MiniPrep kit (Zymo Research) with on-column DNase treatment, according to the manufacturer's instructions. Reverse transcription was carried out with SuperScript VILO cDNA Synthesis Kit (Life Technologies) and the cDNA samples were analyzed by qRT-PCR using PowerUp SYBR Green Master Mix (Thermo Fisher Scientific). For miR-21 expression analysis total RNA was retrotranscribed using miRCURY® LNA® RT Kit (Qiagen) and the cDNA was analyzed by using miRCURY® LNA® miRNA PCR Assay (Qiagen). […]

The subject of experiment [2] is WT HCCLM3 cells. Put plainly: Antiproliferative effect on WT HCCLM3 cells (CCK-8). As to conditions: 30 μM, 48 hours. On the procedure:
HCCLM3 and SK-Hep-1 cells were seeded into 96-well plates at a density of 10 000 cells per well and allowed to adhere overnight. Subsequently, the cells were treated with the following substances: 0.1% DMSO as the negative control, various concentrations of the test compounds, and 125 μM enoxacin as the positive control. After 48 h of incubation, the original culture medium was removed, and the cells were washed twice with PBS. Then, 100 μL of DMEM culture medium containing 10% CCK-8 (Bimake, USA) was added to each well. The plates were incubated for 30 minutes at 37 °C. To determine the […], measurements were taken at a wavelength of 450 nm using a Varioskan from Thermo Fisher Scientific.

The subject of experiment [3] is HCT-116 (colon cancer). Put plainly: Proliferation of HCT-116 cells (trypan blue count). As to conditions: 30 μM, 72 hours. The method, then: A2780 and SKOV-3 cells were treated with 50 μM of 33 for 72 h before RNA and protein extraction and expression analyses. A2780 and A2780 CIS were treated with 33 (30 μM) and/or cisplatin (1 μM, Sigma-Aldrich) for 48 hours while MCF-7, A549 and HCT-116 were treated with 33 (30 μM) for 72 hours. Total cell number and viability have been assessed using Trypan Blue Solution (Thermo Fisher Scientific) and Countess™ 3 Automated Cell Counter (Thermo Fisher Scientific).

Experiment [4] deals with SKOV-3 cell line. Put plainly: Antiproliferative effect against the SKOV-3 cell line (GI50, cell count). The method, then: SKOV-3, A2780 and A2780 CIS were cultured and maintained, as previously described,[50] at 37 °C in RPMI 1640 medium (Euroclone) supplemented with 10% fetal bovine serum (FBS; Euroclone), L-glutamine and penicillin/streptomycin (SIGMA-ALDRICH). OVCA433, HEK-293T, HeLa, HCCLM3, SK-Hep-1, MCF-7, A549 and HCT-116 cells were maintained in DMEM medium (Euroclone) containing 10% FBS (Euroclone), L-glutamine and penicillin/streptomycin (SIGMA-ALDRICH). Wi-38 cells were cultured in DMEM medium (Euroclone) supplemented with 10% FBS (Euroclone), L-glutamine and penicillin/streptomycin (SIGMA-ALDRICH), and 1% non-essential amino acids (NEAA; Euroclone). The cultures were maintained in a constant temperature incubator at 37 °C with 5% CO2. […] Once cell adhesion had been promoted, the compounds were added to the culture medium. After 72 hours of treatment, the cells were counted, and the data analyzed by linear regression. Each experiment was carried out three times in triplicate and three separate cell counts were made for each sample. […] Afterwards, the concentration range was narrowed to the relative value obtained in the first evaluation in order to obtain an accurate value.

The GI50 is the concentration at which growth is held to half of that of the control. A high value points to lower sensitivity of the cells. `O=C(O)c1cn(C2CC2)c2cc(N3CCc4ccccc4C3)c(F)cc2c1=O` [Compound 33, 1-Cyclopropyl-7-(3,4-dihydroisoquinolin-2(1H)-yl)-6-fluoro-4-oxo-1,4-dihydroquinoline-3-carboxylic acid]: the “RNAi enhancing effect (GAPDH mRNA decrease)” value in experiment [1] is “modest but significant RNAi enhancing effect”. Further, the “reduction of viability of WT HCCLM3 cells” value in experiment [2] is “about 50%”. Also, in experiment [3], the “effect on HCT-116 cell proliferation” value is on record as “significant inhibitory effect on cell proliferation”. The compound also returned a GI50 in experiment [4] (Homo sapiens, SK-OV-3, 72 h, 50% cell growth inhibition, 72 hours of treatment, cell count, ND = activity not dose dependent) of 13.5 ± 1.45 µM. Besides, the “GI50 SKOV-3, fold lower than enoxacin” value in experiment [4] (versus enoxacin) is recorded as “about 9 fold”.

Source of the values: PMC11467779, “New anti-ovarian cancer quinolone derivatives acting by modulating microRNA processing machinery” (RSC Medicinal Chemistry, 2024).
